10 molecules from US4613618A, “Method for treating disorders of lipid metabolism using benzene sulfonamides” (Choay S.A., priority 1981, dated 1986) can be followed below.

SMILES strings stand for the structures. Like-named read-outs stand apart in the source and are kept apart here.

Series [1] relates to hyperlipidemia caused by the administration of TRITON. The series can be described thus: Triton test: lipid regulating activity in hyperlipidemia caused by TRITON W. R. The class given is in vivo, WISTAR male rats. Conditions: Rattus norvegicus, po, 250 mg/kg orally, 6 hours and/or 24 hours. The protocol:
In a first series of experiments, products were tested on a hyperlipidemia caused by the administration of TRITON according to the following procedure.
The tests were carried out on groups of five WISTAR male rats whose weight varied from 150 to 175 g.
The tested products were administered, orally in the form of a 3% aqueous solution of tragacanth gum in the ratio of 1 ml per 100 g of body weight, in an amount corresponding to 250 mg/kg.
To carry out these tests, a hyperlipidemia was caused in the animals, by means of the product marketed by the ROHM and HAAS Company under the name TRITON W. R.
On this hyperlipidemia the effects obtained by the administration of the active substances according to the invention, are observed.
The tests were carried out as follows:
the rats were fasted for 18 hours, then the TRITON W. R. was administered intravenously in 10% aqueous solution in the proportion of 200 mg/kg;
simultaneously 250 mg/kg of the product under test was administered orally;
6 hours and/or 24 hours later, blood assays were carried out conventionally.
to the total cholesterol, […]

Series [2] in a line: Acute toxicity, intraperitoneal, mice. The settings on record: mouse, in vivo, ip, intraperitoneally, read-out: lethal dose 50. The protocol: The acute toxicity is expressed by the lethal dose 50, that is to say the dose resulting in the death of 50% of the animals.
This study was carried out on mice, to which the products under test were administered intraperitoneally.
It was established as follows, for the following substances: […]

Series [3] deals with atherosclerosis inducing diet (cholesterol, cholic acid, vitamine D2). The series can be described thus: Atherosclerosis inducing diet: biochemical exams. Format: in vivo, Wistar female rats. Also on record: CHOLESTEROL T, % reduction with respect to the control diet / CHOLESTEROL HDL, % with respect to the control diet / CHOLESTEROL LDL, % reduction with respect to the control diet / TRIGLYCERIDES, % reduction with respect to the control diet: concentration or dose not given beside the values. Conditions: for TRIGLYCERIDES, % reduction with respect to the control diet / CHOLESTEROL HDL, % with respect to the control diet / CHOLESTEROL LDL, % reduction with respect to the control diet / CHOLESTEROL T, % reduction with respect to the control diet: 4 weeks administration; for CHOLESTEROL LDL, Score with respect to clofibrate / CHOLESTEROL T, Score with respect to clofibrate / TRIGLYCERIDES, Score with respect to clofibrate / CHOLESTEROL HDL, Score with respect to clofibrate: clofibrate counted as 1; for CHOLESTEROL T, % reduction with respect to the control diet: total cholesterol. On the procedure: (§1) In a second experimental series, tha activity of certain products according to the invention were tested on animals which had received an atherosclerosis inducing diet for a long period.
(§2) The test was carried out on Wistar female rats, of weight about 160-180 g.
(§3) The animals received food coming from the National Nutrition plant of Villemoisson-sur-Orge, France, and denoted by the reference UAR AO3, enriched in cholesterol (0.5%) and in cholic acid (0.5%).
(§4) After 15 days of the atherosclerosis inducing diet and whilst maintaining the animals on an atherosclerosis inducing diet, they were given orally for 4 days 250.000 iu/kg of vitamine D2 marketed under the name Sterogyl 25H, in solution in olive oil.
(§5) Then the products under study were administered for 4 weeks, from the end of the administration of the lesion-inducing agent.
At the end of the study, biochemical examinations were carried out on all the animals [total cholesterol, high density lipoprotein (HDL) and cholesterol low density lipoprotein (LDL), and triglycerides].
(§6) Then the pecentage reduction with respect to the diet controls and the score were calculated, that is to say the ratio of the intensity of the activity of the product tested with respect to that of the activity of clofibrate, reckoned as 1.
Table IX gives the detailed results of the biochemical examination:
(a) in % reduction with respect to the control die;
(b) as score, with respect to the reference product, clofibrate, the latter being counted as 1.

Series [4] relates to atherosclerosis lesions. The series can be described thus: Atherosclerosis inducing diet: macroscopic exams (affected animals). Format: in vivo, Wistar female rats. Conditions: for Score with respect to the reference clofibrate (animals afflicted with lesions): clofibrate counted as 1; for AFFECTED ANIMALS %: macroscopic exams, TEM-diet 100. On the procedure:
as §1, §2, §3, §4, §5
(§7) At the end of the study, all the animals still alive were sacrificed, and various organs were removed, particularly the aorta, for histological study of the latter. Two criteria were examined: the number of atherosclerosis areas and the severity of the lesions.
as §6
Table X gives the results of macroscopic examinations:
(a) in % decrease in animals afflicted with lesions;
(b) as score with respect to the reference clofibrate, of which the score was counted as 1.

Series [5] relates to aorta. The series can be described thus: Atherosclerosis inducing diet: microscopic observations (aorta, histology). Conditions: for NUMBER OF ATHEROSCLEROTIC AREAS: TEM-diet 160; for HISTOLOGICAL QUOTATION, score with respect to clofibrate / NUMBER OF ATHEROSCLEROTIC AREAS, score with respect to clofibrate: clofibrate counted as 1; for HISTOLOGICAL QUOTATION, percentage reduction with respect to the diet controls / HISTOLOGICAL QUOTATION: severity of the lesions; for HISTOLOGICAL QUOTATION: TEM-diet 132. Format: in vivo, Wistar female rats. On the set-up: HISTOLOGICAL QUOTATION, percentage reduction with respect to the diet controls / NUMBER OF ATHEROSCLEROTIC AREAS, percentage reduction with respect to the diet controls: concentration or dose not given beside the values. The protocol: as §1, §2, §3, §4, §5, §7
Calculation of the figures was carried out in the following manner:
as regards the severity of the lesions, a quotation ranging from 0 for absence of a lesion to 5+ for the severest lesions was made, and this for each type of alteration concerned (increase of interlamellar spaces, interruption of elastic laminae, thickening of the elastic laminae, calcium deposition, mucopolysaccharide deposition); then all of the results per batch of animals were added;
as regards the number of atherosclerosis areas, by counting the latter and adding all the figures obtained per batch of animals.
as §6
Table XI gives the microscopic results with histological quotation as regards the severity of the lesions, and the number of atherosclerotic areas.

Where [6] appears, read: read-out: Total cholesterol, % of decrease with respect to Triton control.
Setting [7] is: read-out: Total lipids, % of decrease with respect to Triton control.
Where [8] appears, read: read-out: Triglycerides, % of decrease with respect to Triton control.

In the case of `COc1cc([N+](=O)[O-])c(Cl)cc1S(=O)(=O)NCCCCCC(=O)O` [compound 362], the change in vivo at 250 mg/kg in series [1] (setting [6]) was -10%; in series [1] (setting [7]), -39%; in series [1] (setting [8]) it was -88%. In series [2], the LD50 amounted to 1760 mg/kg.

As for `O=C(O)CCCNS(=O)(=O)c1cccnc1` [compound 786], in series [3], the “TRIGLYCERIDES, % reduction with respect to the control diet” value (shortened to “TRIGLYCERIDES, % reduction”) is -17,24%; the “CHOLESTEROL HDL, % with respect to the control diet” value (from here on “CHOLESTEROL HDL, %”) is reported as -20,83%; the “CHOLESTEROL LDL, % reduction with respect to the control diet” value (“CHOLESTEROL LDL, % reduction” for short) is listed as -57,07%; the “CHOLESTEROL LDL, Score with respect to clofibrate” value (shortened to “CHOLESTEROL LDL, Score”) is listed as 1,03. In addition, in series [3], the “CHOLESTEROL T, Score with respect to clofibrate” value (from here on “CHOLESTEROL T, Score”) was 1,11; the “TRIGLYCERIDES, Score with respect to clofibrate” value (shortened to “TRIGLYCERIDES, Score”) was 0,71; the “CHOLESTEROL T, % reduction with respect to the control diet” value (“CHOLESTEROL T, % reduction” below) is on record as -54,22%. Also, in series [1] (setting [6]), the change in vivo at 250 mg/kg is -36%. Also, the change in vivo at 250 mg/kg in series [1] (setting [7]) is -24%. Also, in series [1] (setting [8]), the change in vivo at 250 mg/kg is -17%. Besides, in series [4], the “% decrease in animals afflicted with lesions” value (“% decrease” below) was 6,67%, the “Score with respect to the reference clofibrate (animals afflicted with lesions)” value (from here on “Score … (animals afflicted with lesions)”) is reported as 0,37 and the “AFFECTED ANIMALS %” value is reported as 93,33%.

On to `CCOC(=O)C(C)(C)Oc1ccc(Cl)cc1` [CLOFIBRATE, clofibrate, reference compound], for which, in series [3], the “TRIGLYCERIDES, % reduction” value is listed as -24,14%; the “CHOLESTEROL HDL, %” value is reported as “+104,17%”; the “CHOLESTEROL LDL, % reduction” value is on record as -55,37%; the “CHOLESTEROL HDL, Score with respect to clofibrate” value was 1,00. Further, in series [3], the “CHOLESTEROL LDL, Score” value was 1,00; the “CHOLESTEROL T, Score” value is listed as 1,00; the “TRIGLYCERIDES, Score” value was 1,00; the “CHOLESTEROL T, % reduction” value is recorded as -48,75%. Further, in series [5], the “NUMBER OF ATHEROSCLEROTIC AREAS, percentage reduction with respect to the diet controls” value is on record as 54,93%; the “NUMBER OF ATHEROSCLEROTIC AREAS” value was determined as 72%; the “HISTOLOGICAL QUOTATION, score with respect to clofibrate” value is 1,00; the “NUMBER OF ATHEROSCLEROTIC AREAS, score with respect to clofibrate” value is 1,00. Besides, in series [5], the “HISTOLOGICAL QUOTATION, percentage reduction with respect to the diet controls” value is 62,83% and the “HISTOLOGICAL QUOTATION” value stood at 49%. Also, in series [4], the “% decrease” value is given as 18,18%, the “Score … (animals afflicted with lesions)” value is listed as 1,00 and the “AFFECTED ANIMALS %” value is 81,82%.

With `COc1cc([N+](=O)[O-])c(Cl)cc1S(=O)(=O)NCCCC(=O)O` [compound 387], the change in vivo at 250 mg/kg is -39% in series [1] (setting [7]) and -90% in series [1] (setting [8]). Besides, the LD50 in series [2] amounted to 3070 mg/kg.

On to `Nc1ccc(S(=O)(=O)NCCCCCC(=O)O)cc1` [compound 665], for which the change in vivo at 250 mg/kg was -15% in series [1] (setting [6]), -30% in series [1] (setting [7]) and -20% in series [1] (setting [8]). In addition, the LD50 in series [2] was above 6400 mg/kg.

On to `CCOC(=O)CCCCCCCCCCNS(=O)(=O)c1cc(Cl)c([N+](=O)[O-])cc1OC` [compound 502], for which the change in vivo at 250 mg/kg was -16% in series [1] (setting [6]), -45% in series [1] (setting [7]) and -32% in series [1] (setting [8]). Also, the LD50 in series [2] came out at 3070 mg/kg.

On to `CCOC(=O)CCCCCCCCCCNS(=O)(=O)c1ccc(OC)cc1` [compound 729], for which the change in vivo at 250 mg/kg in series [1] (setting [8]) is -17%. The LD50 in series [2] is above 6400 mg/kg.

`CCOC(=O)CCCNS(=O)(=O)c1cccc([N+](=O)[O-])c1` [compound 679]: in series [3], the “TRIGLYCERIDES, % reduction” value is given as 0%; the “CHOLESTEROL HDL, %” value was “+58,33%”; the “CHOLESTEROL LDL, % reduction” value is -60,14%; the “CHOLESTEROL HDL, Score with respect to clofibrate” value is listed as 0,56. In series [3], the “CHOLESTEROL LDL, Score” value is reported as 1,09; the “CHOLESTEROL T, Score” value is given as 1,09; the “TRIGLYCERIDES, Score” value was determined as 0; the “CHOLESTEROL T, % reduction” value was -53,13%. Moreover, in series [5], the “NUMBER OF ATHEROSCLEROTIC AREAS, percentage reduction with respect to the diet controls” value is 48,57%; the “NUMBER OF ATHEROSCLEROTIC AREAS” value came to 82%; the “HISTOLOGICAL QUOTATION, score with respect to clofibrate” value was 0,64; the “NUMBER OF ATHEROSCLEROTIC AREAS, score with respect to clofibrate” value is 0,88. For the same molecule, in series [5], the “HISTOLOGICAL QUOTATION, percentage reduction with respect to the diet controls” value is 39,97% and the “HISTOLOGICAL QUOTATION” value is reported as 79%. In addition, the change in vivo at 250 mg/kg in series [1] (setting [6]) is -30%. In addition, the change in vivo at 250 mg/kg in series [1] (setting [7]) is -61%. The change in vivo at 250 mg/kg in series [1] (setting [8]) was -34%. In series [4], the “% decrease” value is recorded as 7,14%, the “Score … (animals afflicted with lesions)” value is 0,39 and the “AFFECTED ANIMALS %” value is listed as 92,86%.

On to `O=C(O)CCCCCNS(=O)(=O)c1cccc([N+](=O)[O-])c1` [compound 675], for which the change in vivo at 250 mg/kg is -19% in series [1] (setting [6]), -45% in series [1] (setting [7]) and -27% in series [1] (setting [8]). The LD50 in series [2] was determined as 930 mg/kg.

Take `CCOC(=O)CCCCCCCCCCNS(=O)(=O)c1cccc([N+](=O)[O-])c1` [compound 676]: the change in vivo at 250 mg/kg in series [1] (setting [6]) is -10%; in series [1] (setting [7]), -43%; in series [1] (setting [8]), -24%. In series [2], the LD50 was above 6400 mg/kg.
